The values that follow come from paper PMC9045483 (RSC Advances, 2022).

The structures appear in SMILES notation.

As a reminder, the IC50 is the midpoint of a concentration-inhibition curve.

The subject of one assay is HCT116. The experiment in a line: In vitro cytotoxic activity, MTT colorimetric assay, HCT116. The format is cell-based. The following applies: Homo sapiens, HCT-116, read-out: IC50 HCT116. (Tetrazolium dyes change colour on reduction, which living cells bring about.)
The subject of another assay is A549. The experiment in a line: In vitro cytotoxic activity, MTT colorimetric assay, A549. It is filed as cell-based. Particulars: Homo sapiens, A549, read-out: IC50 A549.
Another assay concerns HepG2. The assay is described as follows: In vitro cytotoxic activity, MTT colorimetric assay, HepG2. The format is cell-based. The following applies: Homo sapiens, HepG2, read-out: IC50 HepG2.
The subject of a further assay is MCF-7. The experiment in a line: In vitro cytotoxic activity, MTT colorimetric assay, MCF-7. The format is cell-based. Particulars: Homo sapiens, MCF7, read-out: IC50 MCF-7.
The target of a further assay is EGFR^T790M (Homo sapiens, UniProt P00533, T790M). The experiment in a line: EGFR^T790M kinase inhibitory assay. The format is biochemical.
For the next assay, the target named is VEGFR-2 (Homo sapiens, UniProt P35968). The experiment in a line: biochemical.
Sequence of VEGFR-2 (P35968 20-1356): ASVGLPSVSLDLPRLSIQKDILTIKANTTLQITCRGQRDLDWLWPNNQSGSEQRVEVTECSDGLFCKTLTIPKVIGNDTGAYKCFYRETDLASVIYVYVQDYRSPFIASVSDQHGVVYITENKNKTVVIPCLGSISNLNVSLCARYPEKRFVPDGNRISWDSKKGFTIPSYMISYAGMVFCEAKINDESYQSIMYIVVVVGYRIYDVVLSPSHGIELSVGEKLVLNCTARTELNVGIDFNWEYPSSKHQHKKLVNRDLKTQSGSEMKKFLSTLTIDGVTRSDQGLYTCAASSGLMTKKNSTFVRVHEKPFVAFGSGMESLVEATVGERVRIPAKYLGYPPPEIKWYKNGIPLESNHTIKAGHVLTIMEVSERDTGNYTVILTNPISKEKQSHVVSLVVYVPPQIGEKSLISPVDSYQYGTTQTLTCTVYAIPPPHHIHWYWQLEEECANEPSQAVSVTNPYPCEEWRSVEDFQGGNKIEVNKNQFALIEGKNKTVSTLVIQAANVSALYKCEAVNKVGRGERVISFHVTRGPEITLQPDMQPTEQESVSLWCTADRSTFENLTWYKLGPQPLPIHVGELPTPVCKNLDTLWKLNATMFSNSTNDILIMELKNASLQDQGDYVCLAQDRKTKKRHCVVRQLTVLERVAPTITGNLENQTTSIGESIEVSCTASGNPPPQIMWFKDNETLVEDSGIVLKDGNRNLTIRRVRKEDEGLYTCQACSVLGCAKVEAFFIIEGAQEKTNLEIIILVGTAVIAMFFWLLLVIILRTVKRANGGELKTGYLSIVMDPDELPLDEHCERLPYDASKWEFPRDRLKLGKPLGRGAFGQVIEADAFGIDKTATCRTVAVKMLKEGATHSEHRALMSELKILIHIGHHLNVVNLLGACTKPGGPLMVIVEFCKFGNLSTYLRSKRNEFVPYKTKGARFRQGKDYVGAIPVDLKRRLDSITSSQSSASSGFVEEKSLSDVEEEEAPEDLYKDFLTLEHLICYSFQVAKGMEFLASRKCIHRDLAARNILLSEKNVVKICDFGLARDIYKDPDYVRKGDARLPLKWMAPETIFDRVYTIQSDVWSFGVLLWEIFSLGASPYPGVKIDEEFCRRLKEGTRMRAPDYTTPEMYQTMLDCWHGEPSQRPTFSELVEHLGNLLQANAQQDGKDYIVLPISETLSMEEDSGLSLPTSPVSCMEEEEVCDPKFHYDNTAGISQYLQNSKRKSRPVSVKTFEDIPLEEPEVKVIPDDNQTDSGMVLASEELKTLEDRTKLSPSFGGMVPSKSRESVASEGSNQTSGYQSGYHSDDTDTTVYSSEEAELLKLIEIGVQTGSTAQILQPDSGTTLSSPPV

Sequence of EGFR^T790M (P00533 25-1210 T790M): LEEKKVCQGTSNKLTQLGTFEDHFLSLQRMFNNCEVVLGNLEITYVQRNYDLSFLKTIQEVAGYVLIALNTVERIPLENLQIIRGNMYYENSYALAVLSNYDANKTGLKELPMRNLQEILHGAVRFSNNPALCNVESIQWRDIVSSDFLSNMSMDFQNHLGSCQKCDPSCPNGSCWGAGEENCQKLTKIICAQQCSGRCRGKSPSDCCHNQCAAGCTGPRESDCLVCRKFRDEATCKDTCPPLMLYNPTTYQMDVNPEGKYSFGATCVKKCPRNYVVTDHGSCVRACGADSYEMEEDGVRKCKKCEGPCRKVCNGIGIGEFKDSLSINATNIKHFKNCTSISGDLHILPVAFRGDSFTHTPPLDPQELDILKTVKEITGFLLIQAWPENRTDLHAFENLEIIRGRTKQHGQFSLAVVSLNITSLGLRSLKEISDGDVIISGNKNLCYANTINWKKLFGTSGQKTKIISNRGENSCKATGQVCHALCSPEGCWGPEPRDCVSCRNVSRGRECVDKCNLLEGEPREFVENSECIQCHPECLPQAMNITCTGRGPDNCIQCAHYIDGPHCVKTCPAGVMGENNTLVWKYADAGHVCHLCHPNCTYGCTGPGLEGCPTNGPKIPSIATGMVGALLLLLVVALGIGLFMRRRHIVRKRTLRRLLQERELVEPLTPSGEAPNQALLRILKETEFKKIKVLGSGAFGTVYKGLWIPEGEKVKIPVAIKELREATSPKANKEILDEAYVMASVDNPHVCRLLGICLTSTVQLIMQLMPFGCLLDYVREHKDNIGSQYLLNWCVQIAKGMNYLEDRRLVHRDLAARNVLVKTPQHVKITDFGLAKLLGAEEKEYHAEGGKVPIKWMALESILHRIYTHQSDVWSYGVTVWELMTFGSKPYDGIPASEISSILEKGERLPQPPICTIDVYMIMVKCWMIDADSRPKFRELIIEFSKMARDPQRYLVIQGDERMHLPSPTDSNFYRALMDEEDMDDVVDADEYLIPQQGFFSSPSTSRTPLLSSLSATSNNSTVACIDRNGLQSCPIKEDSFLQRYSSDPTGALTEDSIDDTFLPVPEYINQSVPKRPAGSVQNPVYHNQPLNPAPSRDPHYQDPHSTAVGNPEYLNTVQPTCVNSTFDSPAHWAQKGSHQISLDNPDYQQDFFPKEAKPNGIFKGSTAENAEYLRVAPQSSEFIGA

Consider `O=C1NC(=O)C(=Cc2ccco2)S1` [Compound 3, 5-(furan-2-ylmethylene)thiazolidine-2,4-dione], for which the 50% inhibitory concentration (IC50) in the assay on HCT116 turned out to be 58.2 µM.

Consider `O=C(CN1C(=O)SC(=Cc2cccs2)C1=O)Nc1ccccc1` [Compound 4a, 2-[2,4-Dioxo-5-(thiophen-2-ylmethylene)thiazolidin-3-yl]-N-phenylacetamide], for which the IC50 in the assay with A549 amounted to 51 ± 2.5 µM; in the assay with HepG2, 52.1 ± 5.2 µM; in the assay on MCF-7, 63.6 ± 3.8 µM; in the assay on HCT116, 58.2 ± 0.7 µM.

As for `O=C(CN1C(=O)SC(=Cc2cccs2)C1=O)Nc1ccc(Cl)cc1` [Compound 4b, N-(4-Chlorophenyl)-2-[2,4-dioxo-5-(thiophen-2-ylmethylene)thiazolidin-3-yl]acetamide], the IC50 in the assay with A549 is 36.1 ± 1.9 µM; in the assay on HepG2 it was 35.4 ± 5.1 µM; with MCF-7 it was 36.9 ± 1.3 µM; in the assay on HCT116, 38.4 ± 3.9 µM.

`O=C(CN1C(=O)SC(=Cc2cccs2)C1=O)Nc1ccc(F)cc1` [Compound 4c, 2-[2,4-Dioxo-5-(thiophen-2-ylmethylene)thiazolidin-3-yl]-N-(4-fluorophenyl)acetamide]: the IC50 with A549 was found to be 38.3 ± 1.9 µM; in the assay on HepG2, 34.2 ± 5.1 µM; in the assay on MCF-7, 39 ± 1.3 µM; in the assay on HCT116 it was 42.5 ± 3.9 µM.

Take `O=C(CN1C(=O)SC(=Cc2cccs2)C1=O)Nc1ccc(Br)cc1` [Compound 4d, N-(4-Bromophenyl)-2-[2,4-dioxo-5-(thiophen-2-ylmethylene)thiazolidin-3-yl]acetamide]: the half-inhibitory concentration (IC50) was 19 ± 3.9 µM in the assay on A549; 0.42 µM on EGFR^T790M; 13.5 ± 3.9 µM in the assay with HepG2; 0.255 µM on VEGFR-2; 22.7 ± 3.9 µM in the assay with MCF-7; 16.6 ± 3.9 µM with HCT116.

For `Cc1ccc(NC(=O)CN2C(=O)SC(=Cc3cccs3)C2=O)cc1` [Compound 4e, 2-[2,4-Dioxo-5-(thiophen-2-ylmethylene)thiazolidin-3-yl]-N-(p-tolyl)acetamide], the IC50 with A549 was found to be 34 ± 3.9 µM; with HepG2, 24.5 ± 3.9 µM; with MCF-7, 25.2 ± 3.9 µM; in the assay with HCT116, 21.3 ± 3.9 µM.

For the compound `COc1ccc(NC(=O)CN2C(=O)SC(=Cc3cccs3)C2=O)cc1` [Compound 4f, 2-[2,4-Dioxo-5-(thiophen-2-ylmethylene)thiazolidin-3-yl]-N-(4-methoxyphenyl)acetamide], the IC50 in the assay on A549 was 22.7 ± 3.9 µM; at EGFR^T790M, 0.36 µM; in the assay on HepG2 it was 10.2 ± 3.9 µM; with MCF-7 it was 22.3 ± 3.9 µM; in the assay on HCT116, 17.7 ± 3.9 µM.

For the compound `O=C(CN1C(=O)SC(=Cc2cccs2)C1=O)Nc1ccc(C(=O)O)cc1` [Compound 4g, 4-{2-[2,4-Dioxo-5-(thiophen-2-ylmethylene)thiazolidin-3-yl]acetamido}benzoic acid], the IC50 in the assay with A549 was found to be 12.9 ± 3.9 µM; at EGFR^T790M, 0.23 µM; in the assay with HepG2, 6.22 ± 3.9 µM; with MCF-7, 10.7 ± 3.9 µM; in the assay with HCT116 it was 11.2 ± 3.9 µM.

On to `O=C(CN1C(=O)SC(=Cc2ccco2)C1=O)Nc1ccccc1` [Compound 5a, 2-[5-(Furan-2-ylmethylene)-2,4-dioxothiazolidin-3-yl]-N-phenylacetamide], for which the IC50 in the assay on A549 was 53.2 ± 2.5 µM; with HepG2, 52.1 ± 5.2 µM; in the assay on MCF-7 it was 59.6 ± 3.8 µM; with HCT116, 48.3 ± 0.7 µM.

In the case of `O=C(CN1C(=O)SC(=Cc2ccco2)C1=O)Nc1ccc(Cl)cc1` [Compound 5b, N-(4-Chlorophenyl)-2-[5-(furan-2-ylmethylene)-2,4-dioxothiazolidin-3-yl]acetamide], the IC50 in the assay on A549 turned out to be 36.2 ± 3.9 µM; in the assay on HepG2, 23.8 ± 3.9 µM; in the assay with MCF-7 it was 25.7 ± 3.9 µM; with HCT116, 28.2 ± 3.9 µM.

As to `O=C(CN1C(=O)SC(=Cc2ccco2)C1=O)Nc1ccc(F)cc1` [Compound 5c, N-(4-Fluorophenyl)-2-[5-(furan-2-ylmethylene)-2,4-dioxothiazolidin-3-yl]acetamide], the IC50 is 35.4 ± 1.9 µM in the assay with A549, 24.1 ± 2.5 µM with HepG2, 28.6 ± 1.3 µM with MCF-7 and 35.7 ± 3.9 µM in the assay on HCT116.

As to `Cc1ccc(NC(=O)CN2C(=O)SC(=Cc3ccco3)C2=O)cc1` [Compound 5d, 2-[5-(Furan-2-ylmethylene)-2,4-dioxothiazolidin-3-yl]-N-(p-tolyl)acetamide], the IC50 in the assay on A549 was found to be 29.7 ± 4.1 µM; in the assay on HepG2, 23.6 ± 3.9 µM; against VEGFR-2, 0.276 µM; with MCF-7 it was 25.3 ± 4.5 µM; in the assay on HCT116 it was 26.4 ± 1.4 µM.

As for `CC(C)c1ccc(NC(=O)CN2C(=O)SC(=Cc3ccco3)C2=O)cc1` [Compound 5e, 2-[5-(Furan-2-ylmethylene)-2,4-dioxothiazolidin-3-yl]-N-(4-isopropylphenyl)acetamide], the IC50 with A549 amounted to 32.9 ± 3.9 µM; on EGFR^T790M, 0.41 µM; in the assay with HepG2 it was 23.8 ± 3.9 µM; on VEGFR-2 it was 0.263 µM; in the assay on MCF-7, 14.5 ± 3.9 µM; in the assay with HCT116, 10.7 ± 3.9 µM.

Regarding `COc1ccc(NC(=O)CN2C(=O)SC(=Cc3ccco3)C2=O)cc1` [Compound 5f, 2-[5-(Furan-2-ylmethylene)-2,4-dioxothiazolidin-3-yl]-N-(4-methoxyphenyl)acetamide], the IC50 in the assay on A549 is 13 ± 3.9 µM; against EGFR^T790M, 0.35 µM; with HepG2 it was 11 ± 3.9 µM; at VEGFR-2 it was 0.247 µM; in the assay on MCF-7, 18.5 ± 3.9 µM; with HCT116 it was 15.7 ± 3.9 µM.

Take `O=C(CN1C(=O)SC(=Cc2ccco2)C1=O)Nc1ccc(C(=O)O)cc1` [Compound 5g, 4-{2-[5-(Furan-2-ylmethylene)-2,4-dioxothiazolidin-3-yl]acetamido}benzoic acid]: the IC50 amounted to 7.55 ± 3.9 µM in the assay with A549, 3.86 ± 3.9 µM in the assay with HepG2, 10.7 ± 3.9 µM in the assay on MCF-7 and 9.04 ± 3.9 µM in the assay with HCT116.

`CNC(=O)c1cc(Oc2ccc(NC(=O)Nc3ccc(Cl)c(C(F)(F)F)c3)cc2)ccn1` [Sorafenib, sorafenib, reference compound]: the IC50 in the assay with HepG2 is 4 ± 0.33 µM.
